# Assay results published in patent US8835617B2, “Polynucleotides encoding a human TRIM-Cyp fusion polypeptide, compositions thereof, and methods of using same” (priority 2008, dated 2014).
# Where two headings read alike, the source gives them in different places.
# How the values were obtained:
# HIV-1 [1] = test system: HIV-1
# Procedure: Since the objective was to engineer a fully human HIV-1 restriction factor, hCypA was the fused at 10 different positions along the length of hT5α (FIG. 44A).
# (§1) 2×10^4 adherent cells/well or 8×10^4 suspension cells/well were plated in 48-well plates (Nunc) for challenge with single-cycle GFP reporter vectors that were titered as indicated. GFP synthesis was assessed by flow cytometry 48 hrs post-infection. For spreading infection, 10^6 Jurkat cells were infected with 1 to 15 ng p24/10^6 cells of HIV-1NL4-3-GFP-IRES-Nef. Cells were split every 3 days, fixed in 0.5% paraformaldehyde/PBS, and assayed for GFP synthesis by flow cytometry. For infection of 10^6 primary CD4^+ T cells or macrophages, 15 ng p24/10^6 cells of a CXCR4- or CCR5-tropic HIV-1NL4-3 stock was used, and infection was monitored by assessing the accumulation of RT activity in the supernatant (Sayah et al., 2004). FACSCalibur, Cellquest Pro (Becton Dickinson), and FlowJo software (Treestar, Inc.) were used to record and analyze fluorescence. 1-5×10^5 events were acquired for analysis. […]
# 2×10^4 adherent cells/well or 8×10^4 suspension cells/well were plated in 48-well plates (Nunc) for challenge with single-cycle GFP reporter vectors that were titered as indicated. GFP synthesis was assessed by flow cytometry 48 hrs post-infection. […]
# HIV-1 [2] = test system: HIV-1; remark: listed apart in the source
# Procedure: CRFK, feline kidney fibroblast cells, lack endogenous T5 and are commonly used in the field as they have large T5-restriction phenotypes in single-cycle assays.
# (§2) 2×10^4 adherent cells/well or 8×10^4 suspension cells/well were plated in 48-well plates (Nunc) for challenge with single-cycle GFP reporter vectors that were titered as indicated. GFP synthesis was assessed by flow cytometry 48 hrs post-infection. For spreading infection, 10^6 Jurkat cells were infected with 1 to 15 ng p24/10^6 cells of HIV-1NL4-3-GFP-IRES-Nef. Cells were split every 3 days, fixed in 0.5% paraformaldehyde/PBS, and assayed for GFP synthesis by flow cytometry. For infection of 10^6 primary CD4^+ T cells or macrophages, 15 ng p24/10^6 cells of a CXCR4- or CCR5-tropic HIV-1NL4-3 stock was used, and infection was monitored by assessing the accumulation of RT activity in the supernatant (Sayah et al., 2004). FACSCalibur, Cellquest Pro (Becton Dickinson), and FlowJo software (Treestar, Inc.) were used to record and analyze fluorescence. 1-5×10^5 events were acquired for analysis.
# as §2, with “cytometry.” for “cytometry. For infection of”, “or macrophages were infected with” for “or macrophages,”, “of CXCR4” for “of a CXCR4-”, “HIV-1NL4-3 stocks, or with low passage, primary isolates HIV-1DH12” for “HIV-1NL4-3 stock was used,”, “and HIV-1132W, (Olivier Schwartz, Pasteur Institute, Paris). Infection” for “and infection”, “supernatant (7).” for “supernatant (Sayah et al., 2004).”
# SIVMAC251 = SIVMAC251 GFP vector challenge of CRFK cells expressing T5 proteins; format: cell-based; details: in words
# Description: Most HIV-1 plasmids and vectors have been described previously (Berthoux et al., 2004). pNL4-3 contains a complete infectious HIV-1 provirus. pNL4-3-R5 bears the V3 loop of the CCR5-tropic 92TH014-2 HIV-1 strain (Papkalla et al., 2002). To generate pNL4-3-GFP-IRES-Nef, enhanced green fluorescent protein (eGFP) and the ECMV (encephalomyocarditis virus) IRES (internal ribosome entry site) were inserted upstream of nef pNLΔenvGFP is pNL4-3 with an env-inactivating mutation and eGFP in place of nef. […] For biochemistry, hT5Cyps were cloned into the p3xFLAG-CMV-7.1 expression vector (Sigma) and HIV-1 CA was expressed as a GST-fusion using the EF1α promoter.
# as §1, with “For spreading infection, 10^6 Jurkat cells were infected with 1 to 15 ng p24/10^6 cells of HIV-1NL4-3-GFP-IRES-Nef. Cells were split every 3 days, fixed in 0.5% paraformaldehyde/PBS, and assayed for GFP synthesis by flow cytometry.” left out, “fluorescence.” for “fluorescence. 1-5×10^5 events were acquired for analysis.”
# [3] = test system: V86P/H87Q/I91V/M96I HIV-1; test: V86P/H87Q/I91V/M96I HIV-1 CA variant vector challenge; format: cell-based
# Description: Most HIV-1 plasmids and vectors have been described previously (Berthoux et al., 2004). pNL4-3 contains a complete infectious HIV-1 provirus. pNL4-3-R5 bears the V3 loop of the CCR5-tropic 92TH014-2 HIV-1 strain (Papkalla et al., 2002). To generate pNL4-3-GFP-IRES-Nef, enhanced green fluorescent protein (eGFP) and the ECMV (encephalomyocarditis virus) IRES (internal ribosome entry site) were inserted upstream of nef pNLΔenvGFP is pNL4-3 with an env-inactivating mutation and eGFP in place of nef. CSGW is an HIV-1 vector expressing eGFP under the control of the spleen focus forming virus (SFFV) promoter. pFUPI, was engineered from pFUW (Lois et al., 2002) and uses the ubiquitin promoter to drive expression of a puromycin resistance cassette followed by ECMV IRES-T5. pAIG uses the SFFV promoter to drive expression of T5 followed by IRES-eGFP. In pscALPS, the SFFV promoter drives expression of T5 and the human CypA promoter drives expression of eGFP. For three-component vector production, HIV-1 gag and pol were expressed using either psPAX2, p8.9NΔSB, p8.9NΔSB-G89V, or p8.9NΔSB-V86P/H87Q/I91V/M96I. p8.9NΔSB-V86P/H87Q/I91V/M96I is p8.9NΔSB with the V86P/H87Q/I91V/M96I mutation (Chatterji et al., 2005) introduced in CA. […] For biochemistry, hT5Cyps were cloned into the p3xFLAG-CMV-7.1 expression vector (Sigma) and HIV-1 CA was expressed as a GST-fusion using the EF1α promoter.
Substance,"HIV-1 restriction activity (HIV-1 [1]; in words, Jurkat T cells (b397 also THP-1 monocytes))",potency relative to hT5αR323-332 and hT5αR332P (HIV-1 [2]; CRFK cells) [fold],restriction of HIV-1 relative to rhT5α (HIV-1 [2]; CRFK cells) [fold],restriction of SIVMAC251 (SIVMAC251),block of V86P/H87Q/I91V/M96I HIV-1 [3],magnitude of restriction with CypA knockdown (HIV-1 [1]; CypA KD vs Luc KD Jurkat T cells),"block of HIV-1 infection relative to hT5Cyp (HIV-1 [2]; CRFK cells, low multiplicities of infection)","HIV-1 restriction activity (HIV-1 [2]; in words, CRFK cells)",inhibition of HIV-1 (HIV-1 [2]; single-cycle infection of CRFK cells) [fold]
"hT5Cyp: human TRIM5α fused at serine 322 to human cyclophilin A, SEQ ID NO:12",activity comparable to AoT5Cyp,~10,~10,neither AoT5Cyp nor hT5Cyp can restrict this virus,blocked infection by viruses bearing this sequence as efficiently as they block standard HIV-1 clones,,,,
AoT5Cyp: Aotus (owl monkey) TRIM5-cyclophilin A fusion protein [reference compound],,,,neither AoT5Cyp nor hT5Cyp can restrict this virus,blocked infection by viruses bearing this sequence as efficiently as they block standard HIV-1 clones,Equivalent results,about 10 fold,restricted all four lentiviruses,~1000
